Legend:
Assay in all cases: relative viability (nuclei count vs DMSO), 5 days (fraction); higher = more cells survive
IPA-3 + Crizotinib = compound: C1=CC=C2C(=C1)C=CC(=C2SSC3=C(C=CC4=CC=CC=C43)O)O [IPA-3] + C[C@@H](Oc1cc(-c2cnn(C3CCNCC3)c2)cnc1N)c1c(Cl)ccc(F)c1Cl [Crizotinib] (partner 1 µM)
Procedure, shortened: (§1)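 A single step with final 0.05% Triton X-100, 1% formaldehyde and 1 ug/ml Hoechst fixed the cells and stained nuclei 5 days after treatment. Lung cancer cell lines in 1536-well plates had been treated by pin tool the day after seeding with one drug alone or a fixed anchor-drug dose plus five library-drug doses (not always all listed) in √10 steps, and nuclei were counted on 4× images. Relative viability is the ratio of nuclei in treated wells to nuclei in vehicle wells, taken as the median of duplicate plates.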

[1] = compound: Cc1ccc(-n2nc(C(C)(C)C)cc2NC(=O)Nc2ccc(OCCN3CCOCC3)c3ccccc23)cc1 [Doramapimod] + CC(=O)c1c(C)c2cnc(Nc3ccc(N4CCNCC4)cn3)nc2n(C2CCCC2)c1=O [Palbociclib] (partner 0.5 µM)
Procedure, shortened: as §1

RAF265 + Vorinostat = compound: Cn1c(Nc2ccc(C(F)(F)F)cc2)nc2cc(Oc3ccnc(-c4ncc(C(F)(F)F)[nH]4)c3)ccc21 [RAF265] + O=C(CCCCCCC(=O)Nc1ccccc1)NO [Vorinostat] (partner 1 µM)
Procedure, shortened: as §1

| Cell Line | relative viability (IPA-3 + Crizotinib; first compound 0.2 µM) | relative viability (IPA-3 + Crizotinib; first compound 0.6325 µM) | relative viability (IPA-3 + Crizotinib; first compound 2 µM) | relative viability (IPA-3 + Crizotinib; first compound 6.325 µM) | relative viability (IPA-3 + Crizotinib; first compound 20 µM) | relative viability ([1]; first compound 0.02 µM) | relative viability ([1]; first compound 0.06325 µM) | relative viability ([1]; first compound 0.2 µM) | relative viability ([1]; first compound 0.6325 µM) | relative viability ([1]; first compound 2 µM) | relative viability (RAF265 + Vorinostat; first compound 0.01 µM) | relative viability (RAF265 + Vorinostat; first compound 0.03162 µM) | relative viability (RAF265 + Vorinostat; first compound 0.1 µM) | relative viability (RAF265 + Vorinostat; first compound 0.3162 µM) | relative viability (RAF265 + Vorinostat; first compound 1 µM) |
| --- | --- | --- | --- | --- | --- | --- | --- | --- | --- | --- | --- | --- | --- | --- | --- |
| NCI-H2009 | 1.12 | 1 | 1.04 | 0.915 | 0.924 | 0.26 | 0.262 | 0.3 | 0.314 | 0.247 | 0.744 | 0.649 | 0.757 | 0.761 | 0.512 |
| HCC-44 | 0.859 | 0.735 | 0.917 | 0.804 | 0.807 | 0.96 | 1 | 0.97 | 0.904 | 0.891 | 1.02 | 1.07 | 1.19 | 1.08 | 1.06 |
| ChaGo-K-1 | 1.32 | 1.08 | 1.17 | 1.09 | 1.23 | 0.928 | 0.906 | 0.918 | 0.942 | 0.823 | 0.783 | 0.826 | 0.727 | 0.635 | 0.578 |
| COR-L23 | 0.695 | 0.699 | 0.682 | 0.604 | 0.601 | 0.29 | 0.317 | 0.298 | 0.338 | 0.283 | 0.487 | 0.297 | 0.392 | 0.268 | 0.248 |
| EMC-BAC-2 | 0.79 | 0.769 | 0.771 | 0.698 | 0.829 | 0.512 | 0.501 | 0.508 | 0.503 | 0.465 | 0.449 | 0.359 | 0.306 | 0.141 | 0.103 |
| LCLC-103H | 1.07 | 0.947 | 1.03 | 1.15 | 1.1 | 0.43 | 0.396 | 0.432 | 0.42 | 0.439 | 0.844 | 0.892 | 0.683 | 0.565 | 0.422 |
| LK-2 | 0.202 | 0.229 | 0.227 | 0.22 | 0.193 | 0.515 | 0.576 | 0.54 | 0.518 | 0.413 | 0.361 | 0.245 | 0.328 | 0.404 | 0.2 |
| SW 1573 | 0.802 | 0.814 | 0.933 | 0.872 | 0.811 | 0.449 | 0.358 | 0.298 | 0.354 | 0.313 | 1 | 0.763 | 0.834 | 0.792 | 0.582 |
| NCI-H2405 | 0.863 | 0.865 | 0.856 | 0.841 | 0.878 | 0.531 | 0.487 | 0.505 | 0.575 | 0.495 | 1.02 | 0.888 | 1.08 | 0.683 | 0.465 |
| NCI-H2087 | 0.955 | 0.755 | 0.9 | 0.791 | 0.957 | 0.237 | 0.215 | 0.293 | 0.27 | 0.219 | 0.634 | 0.359 | 0.757 | 0.864 | 0.719 |
| NCI-H460 | 1.07 | 0.871 | 0.908 | 0.726 | 0.62 | 0.197 | 0.195 | 0.208 | 0.279 | 0.141 | 0.756 | 0.692 | 0.671 | 0.668 | 0.642 |
| LOU-NH91 | 0.723 | 0.757 | 0.809 | 0.728 | 0.801 | 0.531 | 0.564 | 0.535 | 0.528 | 0.509 | 1 | 0.807 | 0.926 | 0.755 | 0.712 |
| NCI-H1651 | 0.962 | 0.85 | 0.909 | 0.88 | 0.961 | 0.478 | 0.523 | 0.47 | 0.511 | 0.516 | 0.61 | 0.637 | 0.521 | 0.591 | 0.453 |
| NCI-H441 | 0.859 | 0.635 | 0.804 | 0.659 | 0.723 | 0.197 | 0.221 | 0.203 | 0.191 | 0.219 | 0.802 | 0.712 | 0.643 | 0.715 | 0.421 |

From the supplement of paper PMC10307832
